Measurements reported in patent publication US4820723A, “Disubstituted tetrazole leukotriene antagonists and methods for their use thereas” (Eli Lilly and Company, priority 1987, dated 1989).

What was measured:
[1] = biological target: T1, LTD4 in guinea pig ileum and trachea (Cavia porcellus, UniProt Q2NNR5); assay: cumulative concentration-response curves to LTD4 in guinea pig ileum and trachea (KB by method of Furchgott); conditions: negative log of the dissociation KB, 30 minute incubation, LTD4 agonist
T1 construct: from tissue; host or cells: isolated ileum and trachea of guinea pigs (male Hartley stated for the ileum test)
T1 sequence (Q2NNR5 1-340): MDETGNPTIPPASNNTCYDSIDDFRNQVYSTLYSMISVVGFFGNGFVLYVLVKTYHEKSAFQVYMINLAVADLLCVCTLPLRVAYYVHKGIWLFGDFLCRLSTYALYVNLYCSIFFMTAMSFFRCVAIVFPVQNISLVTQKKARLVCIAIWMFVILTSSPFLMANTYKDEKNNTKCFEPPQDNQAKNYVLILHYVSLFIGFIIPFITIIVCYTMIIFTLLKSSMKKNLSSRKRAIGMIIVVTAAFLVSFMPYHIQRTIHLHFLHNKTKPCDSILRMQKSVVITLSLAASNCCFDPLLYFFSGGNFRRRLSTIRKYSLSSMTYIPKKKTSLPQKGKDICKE
Procedure: (§1) Male, Hartley guinea pigs weighing 200-450 grams were killed by decapitation. A section of terminal ileum was removed, the lumen cleaned, and the tissue divided into 2.5 cm segments. The ilea were mounted in 10 ml tissue baths containing Krebs-bicarbonate solution of the following composition in mmoles/liter: KCl, 4.6; CaCl2 ·2H2 O, 1.2; KH2 PO4, 1.2; MgSO4 ·7H2 O, 1.2; NaCl, 118.2; NaHCO3, 24.8; and dextrose, 10.0. The bath fluid was maintained at 37° C. and aerated with 95 percent oxygen and 5 percent CO2. In addition, the buffer contained 1×10^-6 M atropine to reduce ileal spontaneous activity. Isometric measurements were made with a Grass FT03C force-displacement transducer and recorded on a Grass polygraph as change in grams of force. A passive force of 0.5 g. was applied to the tissues. After an appropriate equilibration period, single submaximal control responses to pure LTD4 were obtained. Following a five minute exposure of the ileum to an experimental drug, the control concentration of LTD4 was added to the tissue bath. The response of the ileum to LTD4 in the presence of the drug was compared to the response in the absence of the drug. Various degrees of LTD4 antagonism were obtained using 2-4 different concentrations of an experimental compound on a single ileum.
For some of the drugs in this series a more detailed analysis of LTD4 antagonism was made. In these experiments, cumulative concentration-response curves were obtained to LTD4 in guinea pig ileum and trachea. This was followed by a 30 minute incubation with various concentrations of the experimental drug. The concentration response curve to LTD4 was then repeated in the presence of an antagonist. Only one concentration of antagonist was used on a single tissue. KB values were calculated by the method of Furchgott [Ann. N.Y. Acad. Sci., 139, 553 (1967)] using the following equation. [formula]
Dose effect ratio refers to the concentration of agonist required to elicit 50 percent of the maximal response (ED50) in the presence of the antagonist divided by the ED50 in the absence of the antagonist. Calculations were performed with the aid of a computer and a digital plotter. The negative log of the dissociation KB ("pKB ") is given for some of the compounds in the table below.
(§2) Percent inhibition of LTD4 evoked ileal contractions

[2] = test system: pressor response to leukotriene D4; assay: decrease of LTD4 pressor response in pithed rats; type: in vivo, Adult male Sprague-Dawley rats; conditions: Rattus norvegicus, iv, 0.25 h, 15 minutes prior to leukotriene D4 challenge (10 μg/kg, i.v.); dose to decrease pressor response by 50%
Procedure: A further measure of the final product's activity is their ability to decrease the pressor response in pithed rats that are challenged by LTD4. This activity is measured by the following standard procedure
Adult male Sprague-Dawley rats, weighting approximately 300-500 grams, are anesthetized with pentobarbital sodium (60 mg/kg, i.p.). The trachea is cannulated and the rats are ventilated with room air delivered from a rodent respirator (Harvard, model 680; tidal volume of 1 ml/100 grams body weight, 60 cycles/minute). Rats are pithed by passing a steel rod through the right orbit and down the entire length of the spinal column. The rod is left in position for the duration of the experiment. Pulsatile arterial blood pressure is measured from a cannulated carotid artery using a Stathamtransducer (P231D). Mean arterial blood pressure is calculated as diastolic pressure plus 1/3 pulse pressure. Drug solutions are administered i.v. through a catheter placed in a jugular vein. Arterial blood pressure is recorded on a multichannel oscillograph (Beckman, model R511A).
Groups of pithed rats, usually 4-6/group, are pretreated i.v. with a dose of test compound or vehicle (control experiments) 15 minutes prior to leukotriene D4 challenge (10 μg/kg, i.v.). Usually 3-4 doses of the test compound are evaluated in a given study. Blood pressure responses to leukotriene D4 in control and drug-treated pithed rats are then compared and an ED50 dose of antagonist is estimated. ED50 (95% confidence interval) is the calculated dose of antagonist (mg/kg, i.v.) required to decrease the pressor response to leukotriene D4 by 50%.
The ED50 values of selected final products of Formula I are set forth below in Table 2.

[3] = test system: LTD4 evoked ileal contractions; assay: LTD4 antagonism: inhibition of LTD4 evoked contractions of isolated guinea pig ileum; design: species or system Male, Hartley guinea pigs; conditions: 5 min exposure to drug, 50% inhibition of LTD4 responses, 37° C.
Procedure: as §1, §2

| pKB [1] | -log IC50 [3] | Compound | ED50 [2] |
| --- | --- | --- | --- |
| 7.190 | 7.75 | CCCc1c(OCCCCc2nnn(Cc3ccc(C(=O)O)cc3)n2)ccc(C(C)=O)c1O [Example 31, 5-[4-(4-Acetyl-3-hydroxy-2-propylphenoxy)butyl]-2H-tetrazole-2-(α-methylene-p-benzoic acid)] | 6.5 mg/kg |
| 7.10 |  | CCCc1c(OCCCCc2nnn(Cc3ccc(Cc4nn[nH]n4)cc3)n2)ccc(C(C)=O)c1O [Example 54] | 22.4 mg/kg |
| 6.89 |  | CCCc1c(OCCCCc2nnn(Cc3ccc(C(=O)O)c(O)c3)n2)ccc(C(C)=O)c1O [Example 55, 5-[4-(4-Acetyl-3-hydroxyl-2-(n-propyl)phenoxy)-butyl]-2H-tetrahydrazole-2-[4-(methylene)salicylic acid]] | 22 mg/kg |
| 6.40 |  | CCCc1c(OCCCCc2nnnn2Cc2ccc(C(=O)O)cc2O)ccc(C(C)=O)c1O [Example 56, 5-[4-(4-Acetyl-3-hydroxy-2-(n-propyl)phenoxy)butyl]-1H-tetrazole-1-[(4-methylene)-3-hydroxybenzoic acid]] |  |
| 7.06 |  | CCCc1c(OCCCCc2nnn(Cc3ccc(C(=O)O)cc3O)n2)ccc(C(C)=O)c1O [Example 57, 5-[4-(4-Acetyl-3-hydroxy-2-(n-propyl)phenoxy)butyl]-2H-tetrazole-2-[4-(methylene)3-hydroxybenzoic acid]] | 19.8 mg/kg |
| 7.00 |  | CCCc1c(Oc2ccc(-c3nnn(Cc4ccc(C(=O)O)cc4)n3)cc2)ccc(C(C)=O)c1O [Example 58, 5-[Para-(4-Acetyl-3-hydroxy-2-(n-propyl)phenoxy)phenyl]-2H-tetrazole-2-[para(methylene)benzoic acid]] |  |
